According to patent publication US10352938B2, “Macrocyclic HOPO chelators” (LUMIPHORE, INC., priority 2009, dated 2019):
Read-outs that look alike come from different tables or passages of the source. Each block holds one compound with its values, some of them ahead of it.

Tests used:
[1] = UV/visible absorption spectroscopy of Eu(III) complexes in TRIS buffer; assay type: physicochemical; conditions: TRIS buffer pH = 7.4
Source text: Extinction Coefficient. A series of solutions of varied concentrations will be prepared from the solids based on mass and purity. The absorbance of each of these solutions at both 340 nm and at the appropriate acceptor wavelength will be measured and plotted according to Beer's Law (A=εcL where A is absorbance, ε is the extinction coefficient in M^−1 cm^−1, c is concentration, and L is path length in cm) with the fitted linear regression slope equal to […] on a plot of A as a function of C.
Each of the spectra have absorption maxima around 335-340 nm (FIG. 2). Those bands are composed of two electronic transitions; at higher energy, a purely π-π* transition and, at slightly lower energy (around ca. 320 nm), a π-π* transition with some n-π* character, as evidenced previously from TD-DFT calculations. […] This interaction gives maxima blue-shifting from 341 nm for [Eu(H(2,2)-1,2-HOPO)]^0 to 334 nm for [Eu(H(17O5,2)-1,2-HOPO)]^0 (as low as 332 nm for)[Eu(5LIN^Me-1,2HOPO)2]^0).

[2] = Luminescence quantum yield, emission and brightness in aqueous 0.1 M TRIS buffer; assay type: physicochemical; conditions: for øTot: 0.1M TRIS buffer pH = 7.4; for Brightness: at maximum absorption, product of quantum yield and molar absorption coefficient, 0.1 M TRIS pH = 7.4; for overall quantum yield (in words): related to inner-sphere coordinated water
Procedure: Quantum Yield. Quantum yield will be measured using established methods. Fluorescence quantum yield Q are measured in diluted solution with an optical density lower than 0.1 using the following equation Qx/Qr=[Ar(λr)/Ax(λx)][nx^2/nr^2][Dx/Dr] were A is the absorbance at the excitation wavelength (λ), n the refractive index and D the integrated luminescence intensity. Subscripts “r” and “x” stand for reference and sample, respectively. References will be a quinine bisulfate in 1N sulfuric acid in aqueous solution (Qt=0.546)^1 and Ru(bpy)3 2C1 complexes in water solution (Qr=0.028)^2 for all complexes. A plot of integrated emission intensity (i.e. Dr) versus absorbance (i.e. Ar(λr)) yields a linear plot with a slope which can be equated to the reference quantum yield Qr. By analogy, for the unknown sample, a plot of integrated emission intensity (i.e. Dx) versus absorbance (i.e. Ax(λx)) yields a linear plot and Qx can then be evaluated. A minimum of at least two independent measurements will be averaged to derive a reliable value.

[3] = Stability titration (pEu) by competitive batch titration using DTPA; assay type: physicochemical; conditions: for pEu value as compared to DTPA: in words
Procedure: Stability Titrations. The general procedure used to determine the pEu values of ligands was adapted from an already described study using Gd and are similar to that already reported for other complexes. Different volumes of a standardized DTPA stock solution were added to solutions of constant ligand, metal, and electrolyte concentrations. Concentrations of complexed ligand in each solution were determined by subtracting the remaining luminescence intensity after addition of DTPA to the initial luminescence intensity at identical pH and those concentrations were used as references for the analysis. Stability of compounds towards mM concentrations of EDTA and divalent cations will be assessed by incubation of the proposed molecules at nM concentration at room temperature in aqueous solutions of test ions. Time Resolved Fluorescent signal will be assessed at the outset of experiment and monitored over a minimum of 24 hours to determine signal change.

[4] = Triplet excited state energy from phosphorescence of Gd complexes at 77K; assay type: physicochemical; conditions: solid matrix (methanol/ethanol 1/4), using the Gd complexes
Procedure: Estimation of the energies of the ligand based triplet excited state were determined using the Gd(III) complexes. Gadolinium was chosen because it is a 4f^7 lanthanide cation having a similar 4f electronic configuration and size as the europium cation (4f^6), but lacking an accessible metal based low energy electronic excited state. At room temperature, only a broad weak emission centered between 380-400 nm can be seen for the Gd(III) complexes. […] At 77K, in solid matrix, an emission band at approx. 500 nm can be seen (FIG. 8). This emission, red-shifted compared to the singlet excited state, can be assigned to phosphorescence from the triplet excited state, lower in energy than the singlet excited state observed at room temperature. Selective time gated phosphorescence spectra (delay 0.1 ms) of the gadolinium complexes at 77K are depicted in FIG. 8.

[5] = cited from earlier work; for λ: absorption maximum; for ε: extinction coefficient
[6] = quantum yield; cited from earlier work
[7] = cited from earlier work; for τ (D2O): first component where two are printed; for τ (H2O): first (longer) component; for τ (H2O), second component: second (shorter) component of biexponential decay; for q / q, second species: number of inner sphere water molecules; for q: first species
[8] = competitive batch titration using DTPA in 0.1M TRIS pH = 7.4 and 0.1M KCl; cited from earlier work
[9] = Luminescence lifetimes (TRIS buffer, deuterated water, 77K) and inner sphere water number q; conditions: for τ^D / τ^D, second component: deuterated solution; for τ^D / τ (77K): first component; for q / q, second species: inner sphere water molecules; for q: improved Horrock's equations, first species; for τ (77K) / τ (77K), second component: solid matrix at 77K (methanol/ethanol 1/4)
Procedure: Fluorescent decay signals can be acquired using an IBH DataStation Hub photon counting module and data analysis performed using the commercially available DAS 6 decay analysis software package from HORIBA Jobin Yvon IBH. Goodness of fit will be assessed by minimizing the reduced chi squared function, χ2, and a visual inspection of the weighted residuals. Each trace will use at least 10,000 points and the reported lifetime values result from at least three independent measurements.
In addition to the steady state emission spectra, the luminescence quantum yields and luminescence lifetimes of the Eu(III) complexes were also measured in aqueous solution with 0.1 M TRIS buffer pH=7.4 and in deuterated solution to estimate the number of inner sphere water molecule (i.e. q) using the improved Horrock's equations.
Luminescence lifetimes were also determined at 77K, in a solid matrix (Table 5), which have allowed us to determine whether back energy transfer between the donor triplet excited state and the acceptor manifold excited state of the lanthanide is present, or alternately whether quenching via low lying LMCT state occurs.

[10] = Calculation of Eu luminescence parameters (radiative lifetime, rate constants, efficiencies); assay type: physicochemical; conditions: listed as [Eu(H(22)-1,2-HOPO)]
Procedure: In this equation, the ηISC ηET term is termed the sensitization efficiency, ηsens (ηsens=ηISC ηET). All the luminescence parameters τR (the pure radiative luminescence lifetime), kR and knR (the radiative and non-radiative constant rate) can be deduced. These parameters were calculated for five of the octadentate complexes and the model complex that present only one species in solution at pH=7.4 and are reported in Table 6.

[11] = listed as [Eu(H(4,2)-1,2HOPO)]^0
[12] = listed as [Eu(H(3,2)-1,2HOPO)]^0
[13] = listed as [Eu(H(2,2)-1,2-HOPO)]^0
[14] = listed as [Eu(H(2,2)-1,2HOPO)]^0

ε [1, 11]: 17,900 M^−1 · cm^−1
λ^maxabs [1, 11]: 337 nm
øTot ([2]; listed as [Eu(H(4,2)-1,2-HOPO)]^0): 0.031
øTot [2, 11]: 0.031
Brightness [2, 11]: 555 M⁻¹ cm⁻¹
overall quantum yield (in words) [2]: low quantum yields
pEu value as compared to DTPA [3]: decreased
T0-0 (triplet excited state energy) [4, 11]: 22,390 cm^−1
τ^D [9, 11]: 803; μs
τ^D, second component [9, 11]: 338 μs
q [9, 11]: 0;
q, second species [9, 11]: 1.1
τ (77K) [9, 11]: 902; μs
τ (77K), second component [9, 11]: 645 μs
Compound: O=C(NCCN(CCCCN(CCNC(=O)c1cccc(=O)n1O)CCNC(=O)c1cccc(=O)n1O)CCNC(=O)c1cccc(=O)n1O)c1cccc(=O)n1O [Eu(H4)]
λ [5]: 337 nm
ε [5]: 17,900 M^1 cm^−1
ϕEu [6]: 0.031
τ (D2O) [7]: 803 μs
τ (D2O), second component [7]: 338 μs
τ (H2O) [7]: 649 μs
τ (H2O), second component [7]: 236 μs
q [7]: 0
q, second species [7]: 1.1
pEu [8]: 18.4

ε [1, 12]: 17,700 M^−1 · cm^−1
λ^maxabs [1, 12]: 339 nm
øTot [2, 12]: 0.037
Brightness [2, 12]: 655 M⁻¹ cm⁻¹
overall quantum yield (in words) [2]: low quantum yields
pEu value as compared to DTPA [3]: decreased
decrease in stability relative to Eu(H8-2) and Eu(H11-3) ([3]; pEu difference): 2.9 log unit
T0-0 (triplet excited state energy) [4, 12]: 21,900 cm^−1
τ^D [9, 12]: 811; μs
τ^D, second component [9, 12]: 369 μs
q ([9]; listed as [Eu(H(3,2)-1,2-HOPO)]^0): 0.3
q [9, 12]: 0.3;
q, second species [9, 12]: 1.0
τ (77K) [9, 12]: 1040; μs
τ (77K), second component [9, 12]: 781 μs
Compound: O=C(NCCN(CCCCN(CCNC(=O)c1cccc(=O)n1O)CCNC(=O)c1cccc(=O)n1O)CCNC(=O)c1cccc(=O)n1O)c1cccc(=O)n1O [Eu(H3)]
λ [5]: 339 nm
ε [5]: 17,700 M^1 cm^−1
ϕEu [6]: 0.037
τ (D2O) [7]: 811 μs
τ (D2O), second component [7]: 369 μs
τ (H2O) [7]: 552 μs
τ (H2O), second component [7]: 253 μs
q [7]: 0.3
q, second species [7]: 1.0
pEu [8]: 17.5

λ^maxabs [1, 13]: 341 nm
ε [1, 14]: 18,200 M^−1 · cm^−1
λ^maxabs [1, 14]: 341 nm
øTot [2, 14]: 0.036
ϕTot ([2]; aqueous TRIS pH = 7.4, complexes with only one species, listed as [Eu(H(22)-1,2-HOPO)]): 0.036
Brightness [2, 13]: 655 M⁻¹ cm⁻¹
Brightness [2, 14]: 655 M⁻¹ cm⁻¹
overall quantum yield (in words) [2]: low quantum yields
T0-0 (triplet excited state energy) [4, 14]: 21,980 cm^−1
η^Eu ([10]; efficiency of metal centred luminescence): 0.160
knr ([10]; non-radiative rate constant): 1750 s⁻¹
τrad ([10]; pure radiative luminescence lifetime, aqueous TRIS pH = 7.4): 3000 μs
kr ([10]; radiative rate constant): 333 s⁻¹
τ ([9]; aqueous TRIS pH = 7.4, listed as [Eu(H(22)-1,2-HOPO)]): 480 μs
τ^D [9, 14]: 1222 μs
q [9, 14]: 1.1
τ (77K) [9, 14]: 914 μs
Compound: O=C(NCCN(CCCCN(CCNC(=O)c1cccc(=O)n1O)CCNC(=O)c1cccc(=O)n1O)CCNC(=O)c1cccc(=O)n1O)c1cccc(=O)n1O [Eu(H2)]
η^sens ([10]; sensitization efficiency): 0.225
λ [5]: 341 nm
ε [5]: 18,200 M^1 cm^−1
ϕEu [6]: 0.036
τ (D2O) [7]: 1222 μs
τ (H2O) [7]: 480 μs
q [7]: 1.1
pEu [8]: 21.2
